Laboratory results taken from patent US9409893B2, “Heteroaryl derivatives and uses thereof” (Jacobus Pharmaceutical Company, Inc., priority 2012, dated 2016).
Where a name gives a salt, the structure may show the parent alone. Read-outs that look alike come from different tables or passages of the source.

Legend:
[1] = system: P. falciparum strain W2; assay: [3H]-hypoxanthine growth inhibition assay, P. falciparum W2; type: cell-based; conditions: Plasmodium falciparum
Experimental: (§1) The potential for antimalarial activity against Plasmodium falciparum was determined by measuring the incorporation of tritiated hypoxanthine into parasitized red blood cells.
(§2) Stock solutions of the test compounds and the reference drug chloroquine (CQ) (Sigma Chemicals C-6628, Lot #059H0919) were prepared in silanized glass vials with AquaSil™ (Pierce, USA) to minimize absorption of the compounds to glassware. All test compounds were dissolved in DMSO (Sigma Cat No. #D8418) to 1 mM concentration, whereas CQ was dissolved in 50% methanol at a concentration of 1.6 mg/ml (base). Stock solutions were stored at −20° C.
(§3) The P. falciparum laboratory adapted strains utilized in this project (Table 1) were in vitro cultured and routinely maintained in RPMI-1640-LPLF complete medium, which contained low concentrations of para-amino benzoic acid (0.0005 mg/L) and folic acid (0.01 mg/L).
(§4) The low concentration of folic acid in RPMI-1640-LPLF prevents inhibition of the compound if its activity targets the parasite's folate metabolic pathway. Parasites were cultured in human red blood cells (RBCs) in vitro at 37° C. in special gas mixture (5% O2, 5% CO2 and 90% N2) as described Trager and Jensen (1979 Science 193:673-675).
(§5) Base cultivation medium consisted of 10.4 g/L RPMI-1640-LPLF powder (Gibco BRL), 5.97 g/L HEPES buffer (MP Biomedicals, USA), 2.0 g/L D-glucose (BDH chemicals, Australia), 0.05 g/L hypoxanthine (Sigma, USA) and 40 mg/L gentamycin (Pfizer, Australia). The pH of the medium was adjusted to 6.9 and the solution was filtered using 0.2 μm pore size (AcroCap, Gelman Science, USA). Complete medium was prepared by adding sodium bicarbonate solution (final concentration, 0.21%) and drug-free heat-inactivated human plasma, pooled from various blood types, obtained from the Australian Red Cross Blood Service (Brisbane) (final concentration, 10%) to the base RPMI-1640-LPLF. For [^3H]-hypoxanthine inhibition growth assay, RPMI-1640-LPLF complete medium which lacked [^3H]-hypoxanthine ([^3H]-RPMI-1640-LPLF) was used to prevent uptake of hypoxanthine by parasites, as radioactive hypoxanthine uptake is measured as a surrogate marker of growth. All complete medium was used within three days of preparation. See DE (Para) SOP 002 for methodology.
(§6) Red blood cells (RBC) were required for P. falciparum parasites to proliferate in vitro. 0 (Rh+) type blood was obtained from the Australian Red Cross Blood Service. The RBC were washed twice in phosphate-buffered saline (PBS) and once in [^3H]-RPMI-1640-LPLF complete medium by centrifugation at 1,500×g for 5 min. Following the final wash, the haematocrit was measured as the percent of RBC to total culture volume. The haematocrit was adjusted to 50% by removing or adding [^3H]-RPMI-LPLF complete medium. See DE (Para) SOP 003 for methodology.
(§7) All P. falciparum strains were grown in RPMI-1640-LPLF complete medium at 4% haematocrit and 1% to 8% parasitaemia at 37° C. in sealed flasks in a gas mixture of 5% O2, 5% CO2 and 90% N2 (BOC Gases, Brisbane, Australia). For drug susceptibility assays cultures were routinely synchronized when the majority of parasites (>85%) were at early trophozoite (ring) stage. Synchronization involved removing the more mature erythrocytic parasite stages by lysis, resulting in the retention only of early trophozoite (ring) stages. Synchronization was performed by re-suspending the infected red blood cell (iRBC) pellet in 5 to 10 times its volume of 5% D-sorbitol (Bacto Laboratories Pty. Ltd., Australia) for 5 min (Lambros and Vanderberg, 1979 J Parasitol 65: 418-420). The mixture was centrifuged (1,500 rpm for 5 min) and the supernatant removed. The iRBC were washed twice using PBS buffer and once using [^3H]-RPMI-LPLF plain medium. Following synchronization, a new culture was prepared with an initial parasitaemia of 1% in RPMI-LPLF complete medium. See DE (Para) SOP 008 for methodology.

[2] = system: P. falciparum strain D6; assay: [3H]-hypoxanthine growth inhibition assay, P. falciparum D6; type: cell-based; conditions: Plasmodium falciparum
Experimental: as §1, §2, §3, §4, §5, §6, §7

[3] = P. falciparum W2 (resistant to chloroquine and pyrimethamine), [3H]-hypoxanthine incorporation, read-out: W2 IC50
[4] = P. falciparum D6 (sensitive to chloroquine and pyrimethamine), [3H]-hypoxanthine incorporation, read-out: D6 IC50

| IC50 [1, 3] | IC50 [2, 4] | Compound | IC50 ([1]; W2, read-out: W2 IC50) | IC50 ([2]; D6, read-out: D6 IC50) |
| --- | --- | --- | --- | --- |
| 2270 nM | 5480 nM | CC(C)(C)NCc1cc(C(C)(C)C)cc(-c2ncccc2C(F)(F)F)c1O [Example 31, 4-(tert-Butyl)-2-((tert-butylamino)methyl)-6-(3-(trifluoromethyl)pyridin-2-yl)phenol 1.7hydrochloride] | – | – |
| – | – | CC(CN)NCc1cc(C(C)(C)C)cc(-c2ccc(C(F)(F)F)nc2)c1O (centres unmarked) [Example 65, 2-(((1-Aminopropan-2-yl)amino)methyl)-4-(tert-butyl)-6-(6-(trifluoromethyl)pyridin-3-yl)phenol dihydrochloride] | 210 nM | 394 nM |
| – | – | CC(C)(C)NCc1cc(C(C)(C)C)cc(-c2cncc(Cl)c2)c1O [Example 21, 4-(tert-Butyl)-2-((tert-butylamino)methyl)-6-(5-chloropyridin-3-yl)phenol dihydrochloride] | 8 nM | 17 nM |
| 3440 nM | 6860 nM | CC(C)(C)NCc1cc(C(C)(C)C)cc(-c2ncccc2F)c1O [Example 27, 4-(tert-Butyl)-2-((tert-butylamino)methyl)-6-(3-fluoropyridin-2-yl)phenol 1.7hydrochloride] | – | – |
| – | – | CCN(CC)CCNCc1cc(C(C)(C)C)cc(-c2ccc(C(F)(F)F)nc2)c1O [Example 63, 4-(tert-Butyl)-2-(((2-(diethylamino)ethyl)amino)methyl)-6-(6-(trifluoromethyl)pyridin-3-yl)phenol dihydrochloride] | 7 nM | 9 nM |
| – | – | CC(C)(C)NCc1cc(C(C)(C)C)cc(-c2ccc(N)nc2)c1O [Example 11, 2-(6-Aminopyridin-3-yl)-4-(tert-butyl)-6-((tert-butylamino)methyl)phenol dihydrochloride] | 398 nM | 350 nM |
| – | – | COc1ccc(-c2cc(C(C)(C)C)cc(CNC(C)(C)C)c2O)cn1 [Example 12, 4-(tert-Butyl)-2-((tert-butylamino)methyl)-6-(6-methoxypyridin-3-yl)phenol dihydrochloride] | 14 nM | 23 nM |
| 2290 nM | 3660 nM | CC(=O)N1CCN(Cc2cc(C(C)(C)C)cc(-c3ccc(C(F)(F)F)nc3)c2O)CC1 [Example 53, 1-(4-(5-(tert-Butyl)-2-hydroxy-3-(6-(trifluoromethyl)pyridin-3-yl)benzyl)piperazin-1-yl)ethanone hydrochloride] | – | – |
| – | – | CC(C)Oc1ccc(-c2cc(C(C)(C)C)cc(CNC(C)(C)C)c2O)cn1 [Example 10, 4-(tert-Butyl)-2-((tert-butylamino)methyl)-6-(6-isopropoxypyridin-3-yl)phenol dihydrochloride] | 11 nM | 25 nM |
| – | – | CC(C)(C)NCc1cc(C(C)(C)C)cc(-c2ccc3ncccc3c2)c1O [Example 5, 4-(tert-Butyl)-2-((tert-butylamino)methyl)-6-(quinolin-6-yl)phenol dihydrochloride] | 25 nM | 37 nM |
| 9 nM | 21 nM | CC(C)(C)NCc1cc(C(C)(C)C)cc(-c2ccnc(C(F)(F)F)c2)c1O [Example 20, 4-(tert-Butyl)-2-((tert-butylamino)methyl)-6-(2-(trifluoromethyl)pyridin-4-yl)phenol hydrochloride] | – | – |
| 5000 nM | 7000 nM | CC(C)(C)NCc1cc(-c2ccc(C(F)(F)F)nc2)cc(-c2ccc(C(F)(F)F)nc2)c1O [Example 38, 2-((tert-Butylamino)methyl)-4,6-bis(6-(trifluoromethyl)pyridin-3-yl)phenol] | – | – |
| 9 nM | 18 nM | CC(C)(C)NCc1cc(C(C)(C)C)cc(-c2cc3ccccc3s2)c1O [Example 7, 2-(Benzo[b]thiophen-2-yl)-4-(tert-butyl)-6-((tert-butylamino)methyl)phenol hydrochloride] | – | – |
| – | – | CN1CCN(Cc2cc(C(C)(C)C)cc(-c3ccc(C(F)(F)F)nc3)c2O)CC1 [Example 50, 4-(tert-Butyl)-2-((4-methylpiperazin-1-yl)methyl)-6-(6-(trifluoromethyl)pyridin-3-yl)phenol dihydrochloride] | 160 nM | 297 nM |
| 68 nM | 192 nM | CC(C)(C)NCc1cc(C(C)(C)C)cc(-c2cccc(C(F)(F)F)n2)c1O [Example 29, 4-(tert-Butyl)-2-((tert-butylamino)methyl)-6-(6-(trifluoromethyl)pyridin-2-yl)phenol hydrochloride] | – | – |
| 130 nM | 239 nM | CC(C)(C)NCc1cc(Cl)cc(-c2ccc(C(F)(F)F)nc2)c1O [Example 69, 2-((tert-Butylamino)methyl)-4-chloro-6-(6-(trifluoromethyl)pyridin-3-yl)phenol hydrochloride] | – | – |
| 81600 nM | 125000 nM | CC(C)(C)NCc1cc(S(C)(=O)=O)cc(-c2ccc(C(F)(F)F)nc2)c1O [Example 72, 2-((tert-Butylamino)methyl)-4-(methylsulfonyl)-6-(6-(trifluoromethyl)pyridin-3-yl)phenol hydrochloride] | – | – |
| – | – | CCN(CC)CCCC(C)NCc1cc(C(C)(C)C)cc(-c2ccc(C(F)(F)F)nc2)c1O (centres unmarked) [Example 59, 4-(tert-Butyl)-2-(((5-(diethylamino)pentan-2-yl)amino)methyl)-6-(6-(trifluoromethyl)pyridin-3-yl)phenol dihydrochloride] | 97 nM | 87 nM |
| – | – | CC(C)(C)NCc1cc(C(C)(C)C)cc(-c2cncc3ccccc23)c1O [Example 13, 4-(tert-Butyl)-2-((tert-butylamino)methyl)-6-(isoquinolin-4-yl)phenol dihydrochloride] | 85 nM | 73 nM |
| – | – | CCN(CC)CCCNCc1cc(C(C)(C)C)cc(-c2ccc(C(F)(F)F)nc2)c1O [Example 61, 4-(tert-Butyl)-2-(((3-(diethylamino)propyl)amino)methyl)-6-(6-(trifluoromethyl)pyridin-3-yl)phenol dihydrochloride] | 32 nM | 44 nM |
| 202 nM | 216 nM | CC(C)(C)c1cc(CN)c(O)c(-c2ccc(C(F)(F)F)nc2)c1 [Example 64, 2-(Aminomethyl)-4-(tert-butyl)-6-(6-(trifluoromethyl)pyridin-3-yl)phenol hydrochloride] | – | – |
| – | – | CN(C)c1ccc(-c2cc(C(C)(C)C)cc(CNC(C)(C)C)c2O)cn1 [Example 14, 4-(tert-Butyl)-2-((tert-butylamino)methyl)-6-(6-(dimethylamino)pyridin-3-yl)phenol dihydrochloride] | 14 nM | 23 nM |
| 25 nM | 45 nM | CC(C)(C)NCc1cc(C(C)(C)C)cc(-c2ccc(Cl)s2)c1O [Example 2, 4-(tert-Butyl)-2-((tert-butylamino)methyl)-6-(5-chlorothiophen-2-yl)phenol hydrochloride] | – | – |
| – | – | CC(C)(C)c1cc(CNCCCN)c(O)c(-c2ccc(C(F)(F)F)nc2)c1 [Example 62, 2-(((3-Aminopropyl)amino)methyl)-4-(tert-butyl)-6-(6-(trifluoromethyl)pyridin-3-yl)phenol dihydrochloride] | 223 nM | 133 nM |
| 1970 nM | 2100 nM | CC(C)(C)NCc1cc(C(C)(C)C)cc(-c2nccc(C(F)(F)F)n2)c1O [Example 46, 4-(tert-Butyl)-2-((tert-butylamino)methyl)-6-(4-(trifluoromethyl)pyrimidin-2-yl)phenol hydrochloride] | – | – |
